Laboratory results taken from patent publication US10029994B2, “Isoxazole hydroxamic acid compounds as LpxC inhibitors” (priority 2014, dated 2018).
pIC50: −log10 of the molar value.

How the values were obtained:
P. aeruginosa LpxC = target: T1, P. aeruginosa LpxC (Pseudomonas aeruginosa, UniProt P47205); experiment: P. aeruginosa LpxC Inhibition Assay (LC-MS/MS); type: biochemical; conditions: 1 nM P. aeruginosa LpxC, 30 min pre-incubation, 2 μM UDP-3-O-(R-3-hydroxydecanoyl)-GlcNAc, pH 7.5
T1 construct: made in house
T1 sequence (P47205 1-303): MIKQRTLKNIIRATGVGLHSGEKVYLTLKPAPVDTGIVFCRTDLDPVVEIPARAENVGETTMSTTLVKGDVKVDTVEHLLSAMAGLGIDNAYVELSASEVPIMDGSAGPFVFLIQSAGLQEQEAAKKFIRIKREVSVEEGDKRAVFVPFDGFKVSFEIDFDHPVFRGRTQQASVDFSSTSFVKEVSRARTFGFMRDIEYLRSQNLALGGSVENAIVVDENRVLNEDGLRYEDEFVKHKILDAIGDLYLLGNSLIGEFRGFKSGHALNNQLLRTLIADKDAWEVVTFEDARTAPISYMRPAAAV
Source text: P. aeruginosa LpxC Inhibition Assay
The P. aeruginosa LpxC protein is produced according to the general method of Hyland et al (Journal of Bacteriology 1997 179, 2029-2037: Cloning, expression and purification of UDP-3-O-acyl-GlcNAc deacetylase from Pseudomonas aeruginosa: a metalloamidase of the lipid A biosynthesis pathway). The LC-MS/MS method for quantitation of LpxC product was developed using an Agilent 1200 Capillary HPLC system coupled to an Applied Biosystems MDS Sciex 4000QTRAP mass spectrometer. Both instruments are controlled using the Applied Biosystems MDS Sciex Analyst software. LpxC reaction product (UDP-3-O—(R-3-hydroxyacyl)-glucosamine) was produced by hydrolysis of LpxC substrate catalyzed by P.a. LpxC and purified using reversed phase chromatography on a Phenomenex Luna C18(2) 4.6×50 mm column. An LpxC product calibration curve was generated to evaluate the sensitivity and dynamic range of the LC-MS/MS method. Briefly, compounds are pre-incubated with 1 nM P. aeruginosa LpxC for 30 min. at room temperature. Reactions are initiated by the addition of 2 μM UDP-3-O—(R-3-hydroxydecanoyl)-GlcNAc. Reactions are conducted in a 384-well plate with a total volume of 50 μL in each well containing 50 mM Sodium phosphate pH 7.5, 0.005% Trition X-100 for 20 min at room temperature. After quenching with 1.8% HOAc (5 μL of a 20% HOAc added to each well), reaction mixtures are analyzed using the LC-MS/MS method and peak areas are transformed into product concentration using a LpxC product calibration curve. Total activity (0% inhibition control) is obtained from reactions with no inhibitors and 100% inhibition control is the background using quenched samples before reaction starts. For IC50 determinations, peak areas are converted to percent inhibition in Microsoft Excel. Percent inhibition values are plotted vs. log compound concentration using XLfit. Data is fit to the four-parameter logistic equation using the non-linear regression algorithm in XLfit to return the IC50 and hill slope values.

A. B. ATCC 19606 [1] = experiment: MIC in the presence of sub-inhibitory rifampicin (potentiation/synergy); type: cell-based, Acinetobacter baumannii; conditions: +2 μg/ml rifampicin (RIF); broth microdilution, 35° C., 20 hours
Description: (§1) Bacterial isolates were cultivated from −70° C. frozen stocks by two consecutive overnight passages at 35° C. in ambient air on 5% blood agar (Remel, Lenexa, Kans.). Quality control strain, P. aeruginosa ATCC 27853, A. baumannii ATCC19606 and E. coli ATCC 25922 are from the American Type Culture Collection (ATCC; Rockville, Md.) and PAO1 was received from Dr. K. Poole.
(§2) Minimal Inhibitory Concentrations (MICs) were determined by the broth microdilution method in accordance with Clinical and Laboratories Institute (CLSI) guidelines (CLSI M100-S25, Performance Standards for Antimicrobial Susceptibility Testing; Twenty-fifth Informational Supplement). In brief, fresh bacterial overnight cultures were resuspended in sterile saline, adjusted to a 0.5 McFarland turbidity standard and then diluted 2000-fold in cation adjusted Mueller-Hinton Broth II (MHB; Remel BBL) to yield a final inoculum of approximately 5×10^5 colony-forming units (CFU)/mL. Two-fold serial dilutions of compounds were prepared in 100% dimethyl sulfoxide (DMSO) at 100-fold the highest final assay concentration; the resulting dilution series of compounds were diluted 1:10 with sterile water. Ten μl of the drug dilution series in 10% DMSO was transferred to microtiter wells and 90 μl of bacterial suspension was inoculated into the wells. For testing the ability of compounds to potentiate the activity of known antibiotics, the assay was modified as follows; known antibiotics were added to the bacterial inoculum at 1.1-fold the final assay concentration indicated in Table A. All inoculated microdilution trays were incubated in ambient air at 35° C. for 20 hours. Following incubation, assay plates were read in a microtiter plate reader at 600 nm and visually inspected to confirm the MIC endpoint well with the OD value. The lowest concentration of the compound that prevented visible growth was recorded as the MIC. Performance of the assay was monitored by testing ciprofloxacin against the laboratory quality control strain in accordance with guidelines of the CLSI.

E. C. ATCC 29522 = experiment: as above; type: cell-based, Escherichia coli; conditions: +2 μg/ml rifampicin (RIF); broth microdilution, 35° C., 20 hours
Description: as §1, §2

P. A. PAO1 NB52019 = experiment: MIC, broth microdilution (CLSI); type: cell-based, Pseudomonas aeruginosa; conditions: Pseudomonas aeruginosa, PAO1; broth microdilution, 35° C., 20 hours; read-out: P. A. PAO1 NB52019 MIC
Description: as §1, §2

A. B. ATCC 19606 [2] = experiment: MIC, broth microdilution (CLSI); type: cell-based, Acinetobacter baumannii; conditions: Acinetobacter baumannii, ATCC19606; broth microdilution, 35° C., 20 hours; read-out: A. B. ATCC 19606 MIC
Description: as §1, §2

E. C. ATCC 25922 = experiment: MIC, broth microdilution (CLSI); type: cell-based, Escherichia coli; conditions: Escherichia coli, ATCC25922, 20 h, broth microdilution, 35° C., 20 hours; read-out: E. C. ATCC 25922 MIC
Description: as §1, §2

SMILES	pIC50 (P. aeruginosa LpxC)	A. B. ATCC 19606 (+2 μg/ml RIF) MIC (A. B. ATCC 19606 [1]) [µg/mL]	E. C. ATCC 29522 (+2 μg/ml RIF) MIC (E. C. ATCC 29522) [µg/mL]	MIC (P. A. PAO1 NB52019) [µg/mL]	MIC (A. B. ATCC 19606 [2]) [µg/mL]	MIC (E. C. ATCC 25922) [µg/mL]
C[C@@](CCc1cc(C#CCCF)on1)(C(=O)NO)S(C)(=O)=O [Compound 1.9]	8.52	1	0.125	1	> 64	32
C[C@@](CCc1cc(C#CCCC(F)F)on1)(C(=O)NO)S(C)(=O)=O [Compound 1.11, (R)-4-(5-(5,5-Difluoropent-1-yn-1-yl)isoxazol-3-yl)-N-hydroxy-2-methyl-2-(methylsulfonyl)butanamide]	9.00	1	0.5	1	> 64	32
CC(C)(O)CCC#Cc1cc(CC[C@](C)(C(=O)NO)S(C)(=O)=O)no1 [Compound 1.14, (R)—N-hydroxy-4-(5-(5-hydroxy-5-methylhex-1-yn-1-yl)isoxazol-3-yl)-2-methyl-2-(methylsulfonyl)butanamide]	8.70	≤0.06	16	8	> 64	> 64
CC(CCc1cc(C#Cc2ccc(CCO)cc2)on1)(C(=O)NO)S(C)(=O)=O (stereo not drawn) [Compound 2.2, N-hydroxy-4-(5-((4-(2-hydroxyethyl)phenyl)ethynyl)isoxazol-3-yl)-2-methyl-2-(methylsulfonyl)butanamide]	> 9.00	0.5	≤0.06	0.25	> 64	0.25
COC(CO)c1ccc(C#Cc2cc(CCC(C)(C(=O)NO)S(C)(=O)=O)no2)cc1 (stereo not drawn) [Compound 2.3, N-hydroxy-4-(5-((4-(2-hydroxy-1-methoxyethyl)phenyl)ethynyl)isoxazol-3-yl)-2-methyl-2-(methylsulfonyl)butanamide]	> 9.00	4	0.125	0.5	> 64	1
CC(CCc1cc(C#Cc2ccccc2)on1)(C(=O)NO)S(C)(=O)=O (stereo not drawn) [Compound 2.4, N-hydroxy-2-methyl-2-(methylsulfonyl)-4-(5-(phenylethynyl)isoxazol-3-yl)butanamide]	> 9.00	≤0.06	≤0.06	0.5	64	0.5

Continued, values first:

pIC50 (P. aeruginosa LpxC)	A. B. ATCC 19606 (+2 μg/ml RIF) MIC (A. B. ATCC 19606 [1]) [µg/mL]	E. C. ATCC 29522 (+2 μg/ml RIF) MIC (E. C. ATCC 29522) [µg/mL]	MIC (P. A. PAO1 NB52019) [µg/mL]	MIC (A. B. ATCC 19606 [2]) [µg/mL]	MIC (E. C. ATCC 25922) [µg/mL]	SMILES
> 9.00	0.125	≤0.06	0.25	> 64	2	CCCC#Cc1cc(CC[C@](C)(C(=O)NO)S(C)(=O)=O)no1 [Compound 1.7, (R)—N-hydroxy-2-methyl-2-(methylsulfonyl)-4-(5-(pent-1-yn-1-yl)isoxazol-3-yl)butanamide]
> 9.00	≤0.06	0.25	0.25	> 64	8	CC1(C#Cc2cc(CC[C@](C)(C(=O)NO)S(C)(=O)=O)no2)CC1 [Compound 1.8, (R)—N-hydroxy-2-methyl-4-(5-((1-methylcyclopropyl)ethynyl)isoxazol-3-yl)-2-(methylsulfonyl)butanamide]
> 9.00	0.25	0.25	0.5	> 64	8	C[C@@](CCc1cc(C#CCCCF)on1)(C(=O)NO)S(C)(=O)=O [Compound 1.10, (R)-4-(5-(5-fluoropent-1-yn-1-yl)isoxazol-3-yl)-N-hydroxy-2-methyl-2-(methylsulfonyl)butanamide]
> 9.00	≤0.06	0.25	0.5	> 64	16	C[C@@](CCc1cc(C#CC2CC(F)(F)C2)on1)(C(=O)NO)S(C)(=O)=O [Compound 1.12, (R)-4-(5-((3,3-difluorocyclobutyl)ethynyl)isoxazol-3-yl)-N-hydroxy-2-methyl-2-(methylsulfonyl)butanamide]
> 9.00	4	4	2	> 64	16	CC(C)(O)C1CC(C#Cc2cc(CC[C@](C)(C(=O)NO)S(C)(=O)=O)no2)C1 (stereo partly drawn) [Compound 1.16, (R)—N-hydroxy-4-(5-((3-(2-hydroxypropan-2-yl)cyclobutyl)ethynyl)isoxazol-3-yl)-2-methyl-2-(methylsulfonyl)butanamide]
> 9.00	2	≤0.06	0.5	> 64	2	CC(CCc1cc(C#Cc2ccc(CO)cc2)on1)(C(=O)NO)S(C)(=O)=O (stereo not drawn) [Compound 2.1, N-hydroxy-4-(5-((4-(hydroxymethyl)phenyl)ethynyl)isoxazol-3-yl)-2-methyl-2-(methylsulfonyl)butanamide]
